Assay results published in patent US20200397001A1, “CONTROL OF PESTS OF SOYBEAN PLANTS WITH MESOIONIC COMPOUNDS” (BASF SE, priority 2018, published 2020).

Tests used:
Type in all cases: in vivo
[1] = system: Euschistus heros; test: Brown stink bug test on sprayed soybean seedlings of Intacta and BMX-Potencia; conditions: 100 ppm, 6 days after application; for efficacy on soybean with Bacillus thuringiensis toxin trait (INTACTA) versus soybean without the trait (BMX-POTENCIA): sprayed seedlings; for mortality (corrected according to Abbott): sprayed soybean seedlings of Intacta and BMX-Potencia, adults
Experimental: Brown Stink Bug (Euschistus heros)
The active compound is dissolved at the desired concentration in a mixture of 1:1 (vol:vol) distilled water:acetone. Soybean seedlings of Intacta and BMX-Potencia with one pair of true leaves were sprayed 10 with 2 ml solution using an airbrush. After dry, the plants in small pots were placed inside a transparent plastic cage and infested with 10 adults adult stage individuals. Treated cups were kept at about 25° C. Percent mortality was recorded after 6 days after application. […] Entomal., 18 (1925) 265-267.

[2] = system: Nezara viridula; test: Green soldier stink bug soil drench test on lima bean plants; conditions: 250 g ai/ha, 2nd instar nymphs infested 3 days after treatment, read 4 days after infestation
Experimental: Green Soldier Stink Bug (Nezara viridula)
Lima Bean (Phaseolus lunatus, ‘Henderson Bush,’ Lot #—VR06650) plants were transplanted at the two true-leaf stage into 25.8 cm2 pots filled with sifted (No. 10 sieve). Pots were held in the greenhouse and watered daily until treatment. Three days after transplant, the compounds were dissolved in acetone and then diluted with water for a final concentration of 50% acetone. Treatments were applied as a drench in 1 ml solution per plant. Plants were held in an environmental chamber (25±2° C., 24 L) and watered as needed for the duration of the test.
Three days after treatment, plants were infested with five 2nd instar nymphs. Plants were 15 covered with organza fabric bags to prevent escape. Four days after infestation, the number of live nymphs on each plant was recorded, and means were calculated for each treatment. The percent control was calculated as the percent mortality relative to the solvent blank.

[3] = system: Halyomorpha halys; test: Brown marmorated stink bug spray test on soybean seeds in cups; conditions: 300 ppm, adults on soybean seeds, 5 days after treatment
Experimental: Halyomorpha halys (Brown Marmorated Stink Bug)
For evaluating control of Halyomorpha halys the active compound is dissolved at the desired concentration in a mixture of 1:1 (vol:vol) distilled water:acetone with 0.005% (v/v) of Tween 20 added as surfactant. Soybean seeds are placed in a small petri dish inside a plastic cup 10 adults (5 females and 5 males) are introduced into each cup. Using an airbrush sprayer, 1 mL solution was sprayed directly inside the cups with bean pods. After drying, a water source (wet cotton in a small petri dish) is placed in each cup, and the cups closed with ventilated cover. All cups held under constant temperature of 20° C., 16L:8D photoperiod. Live insects are counted at 5 days after treatment.

SMILES | efficacy on soybean with Bacillus thuringiensis toxin trait (INTACTA) versus soybean without the trait (BMX-POTENCIA) [1] | mortality (corrected according to Abbott) [1] [%] | mortality in comparison with untreated controls (percent control relative to the solvent blank) [2] | mortality in comparison with untreated controls [3]
N#CCCn1c(=O)c(-c2ccc(F)cc2)c([O-])[n+]2ccccc12 [Compound C-9] | higher efficacy | 70 | – | –
N#CCCn1c(=O)c(-c2cc(C3CC3)cc(C(F)(F)F)c2)c([O-])[n+]2ccccc12 [Compound C-8] | higher efficacy | 68 | at least 75% | –
Cc1cccc(-c2c([O-])[n+]3ccccc3n(CCC#N)c2=O)c1 [Compound C-6] | – | – | – | at least 75%
